Converted amounts (≈) assume the structure as drawn. Where only a bound is given, the exact number is not on record here.

In test [1] the test system is Staphylococcus aureus. Description: Antibacterial activity against inducible macrolide-lincosamide-streptogramin B-resistant Staphylococcus aureus B0538 by agar microdilution method. It is filed as functional.
Test [2] has as its system Staphylococcus aureus. Description: Antibacterial activity against constitutive macrolide-lincosamide-streptogramin B-resistant Staphylococcus aureus B0330 by agar microdilution method. It is filed as functional.
Test [3] deals with Staphylococcus aureus. Nature of the test: Antibacterial activity against efflux-resistant Staphylococcus aureus B0331 by agar microdilution method. It is filed as functional.
Test [4] concerns Streptococcus pneumoniae. Description: Antibacterial activity against constitutive macrolide-lincosamide-streptogramin B-resistant Streptococcus pneumoniae B0627 by agar microdilution method. It is filed as functional.
Test [5] concerns Streptococcus pneumoniae. Nature of the test: Antibacterial activity against efflux-resistant Streptococcus pneumoniae B0326 by agar microdilution method. The class given is functional.
Test [6] concerns Streptococcus pyogenes. Nature of the test: Antibacterial activity against inducible macrolide-lincosamide-streptogramin B-resistant Streptococcus pyogenes B0543 by agar microdilution method. The class given is functional.
The subject of test [7] is Streptococcus pyogenes. Nature of the test: Antibacterial activity against constitutive macrolide-lincosamide-streptogramin B-resistant Streptococcus pyogenes B0544 by agar microdilution method. The class given is functional.
For test [8], the system named is Streptococcus pyogenes. Description: Antibacterial activity against efflux-resistant Streptococcus pyogenes B0545 by agar microdilution method. The class given is functional.
In a further test the test system is Moraxella catarrhalis. Description: Antibacterial activity against Moraxella catarrhalis B0324 by agar microdilution method. The class given is functional.
For a further test, the system named is Haemophilus influenzae. Description: Antibacterial activity against Haemophilus influenzae B0529 by agar microdilution method. It is filed as functional.
In test [9] the test system is Staphylococcus aureus. Description: Antibacterial activity against erythromycin A-susceptible Staphylococcus aureus B0329 by agar microdilution method.
For test [10], the system named is Streptococcus pneumoniae. Nature of the test: Antibacterial activity against erythromycin-susceptible Streptococcus pneumoniae B0541 by agar microdilution method.
In test [11] the test system is Streptococcus pyogenes. Description: Antibacterial activity against erythromycin A-susceptible Streptococcus pyogenes B0542 by agar microdilution method.

As to `CC[C@H]1OC(=O)[C@H](C)C(=O)[C@H](C)[C@@H](O[C@@H]2O[C@H](C)C[C@H](N(C)C)[C@H]2O)[C@](C)(OCC(O)CN2CCN(c3cccc(C(F)(F)F)c3)CC2)C[C@@H](C)NC(=O)[C@H](C)[C@@H](O)[C@]1(C)O` (mixture of isomers), the MIC in the test with Staphylococcus aureus [1] is 4 µg/mL; against Staphylococcus aureus [2] it was above 64 µg/mL; against Staphylococcus aureus [3], 4 µg/mL; against Streptococcus pneumoniae [4], 16 µg/mL; in the test on Streptococcus pneumoniae [5] it was 4 µg/mL; in the test with Streptococcus pyogenes [6] it was 4 µg/mL. In addition, the MIC worked out at 16 µg/mL in the test on Streptococcus pyogenes [7]; 2 µg/mL against Streptococcus pyogenes [8]; 1 µg/mL with Moraxella catarrhalis; 16 µg/mL in the test on Haemophilus influenzae; 4 µg/mL against Staphylococcus aureus [9]; 0.5 µg/mL against Streptococcus pneumoniae [10]. The compound also displayed an MIC with Streptococcus pyogenes [11] of at most 0.125 µg/mL.
Turning to `CC[C@H]1OC(=O)[C@H](C)C(=O)[C@H](C)[C@@H](O[C@@H]2O[C@H](C)C[C@H](N(C)C)[C@H]2O)[C@](C)(OCC(O)CNCCNc2cnc3ccccc3c2)C[C@@H](C)NC(=O)[C@H](C)[C@@H](O)[C@]1(C)O` (mixture of isomers), the MIC in the test with Staphylococcus aureus [1] was 1 µg/mL; in the test on Staphylococcus aureus [2], above 64 µg/mL; against Staphylococcus aureus [3], 0.25 µg/mL; against Streptococcus pneumoniae [4], 1 µg/mL; against Streptococcus pneumoniae [5] it was 0.25 µg/mL; with Streptococcus pyogenes [6], 1 µg/mL. The MIC against Streptococcus pyogenes [7] is 4 µg/mL; against Streptococcus pyogenes [8] it was 0.5 µg/mL; against Moraxella catarrhalis, at most 0.125 µg/mL; against Haemophilus influenzae, 1 µg/mL; in the test with Staphylococcus aureus [9], 1 µg/mL; in the test on Streptococcus pneumoniae [10], at most 0.125 µg/mL. This compound also yielded an MIC in the test with Streptococcus pyogenes [11] of at most 0.125 µg/mL.
On to `CC[C@H]1OC(=O)[C@H](C)C(=O)[C@H](C)[C@@H](O[C@@H]2O[C@H](C)C[C@H](N(C)C)[C@H]2O)[C@](C)(OCC(O)CNCCc2ccccc2)C[C@@H](C)NC(=O)[C@H](C)[C@@H](O)[C@]1(C)O` (mixture of isomers), for which the MIC is 16 µg/mL with Staphylococcus aureus [1]; above 64 µg/mL in the test with Staphylococcus aureus [2]; 8 µg/mL in the test with Staphylococcus aureus [3]; 8 µg/mL against Streptococcus pneumoniae [4]; 16 µg/mL in the test on Streptococcus pneumoniae [5]; 1 µg/mL in the test on Streptococcus pyogenes [6]. Moreover, the MIC against Streptococcus pyogenes [7] was 16 µg/mL; with Streptococcus pyogenes [8] it was 1 µg/mL; against Moraxella catarrhalis, 0.5 µg/mL; in the test with Haemophilus influenzae, 16 µg/mL; in the test on Staphylococcus aureus [9] it was 4 µg/mL; with Streptococcus pneumoniae [10], 0.25 µg/mL. Further, in the test on Streptococcus pyogenes [11], the MIC amounted to 0.5 µg/mL.
As to `CC[C@H]1OC(=O)[C@H](C)C(=O)[C@H](C)[C@@H](O[C@@H]2O[C@H](C)C[C@H](N(C)C)[C@H]2O)[C@](C)(OCC(O)CN[C@H](C)Cc2ccc(OC)cc2)C[C@@H](C)NC(=O)[C@H](C)[C@@H](O)[C@]1(C)O` (mixture of isomers), the MIC is 2 µg/mL in the test on Staphylococcus aureus [1]; above 64 µg/mL with Staphylococcus aureus [2]; 4 µg/mL with Staphylococcus aureus [3]; 2 µg/mL in the test with Streptococcus pneumoniae [4]; 16 µg/mL with Streptococcus pneumoniae [5]; 1 µg/mL with Streptococcus pyogenes [6]. Besides, the MIC in the test with Streptococcus pyogenes [7] is 8 µg/mL; with Streptococcus pyogenes [8], 1 µg/mL; against Moraxella catarrhalis, 0.5 µg/mL; with Haemophilus influenzae, 16 µg/mL; with Staphylococcus aureus [9], 1 µg/mL; against Streptococcus pneumoniae [10], at most 0.125 µg/mL. The compound also gave an MIC in the test with Streptococcus pyogenes [11] of 0.5 µg/mL.
Consider `CC[C@H]1OC(=O)[C@H](C)C(=O)[C@H](C)[C@@H](O[C@@H]2O[C@H](C)C[C@H](N(C)C)[C@H]2O)[C@](C)(OCC(O)CN2CCN(c3ccc4ncccc4c3)CC2)C[C@@H](C)NC(=O)[C@H](C)[C@@H](O)[C@]1(C)O` (some centres not stated), for which the MIC against Staphylococcus aureus [1] was 0.25 µg/mL (≈ 0.291 µM); against Staphylococcus aureus [2] it was above 64 µg/mL; in the test on Staphylococcus aureus [3], 2 µg/mL (≈ 2.33 µM); with Streptococcus pneumoniae [4], 1 µg/mL (≈ 1.17 µM); in the test with Streptococcus pneumoniae [5], 0.5 µg/mL (≈ 0.583 µM); against Streptococcus pyogenes [6], 0.25 µg/mL (≈ 0.291 µM). The MIC against Streptococcus pyogenes [7] was 4 µg/mL (≈ 4.66 µM); in the test on Streptococcus pyogenes [8] it was 2 µg/mL (≈ 2.33 µM); in the test on Moraxella catarrhalis, 1 µg/mL (≈ 1.17 µM); against Haemophilus influenzae, 2 µg/mL (≈ 2.33 µM); against Staphylococcus aureus [9], 0.25 µg/mL (≈ 0.291 µM); against Streptococcus pneumoniae [10] it was at most 0.125 µg/mL. Besides, the MIC against Streptococcus pyogenes [11] was at most 0.125 µg/mL.
For the compound `CC[C@H]1OC(=O)[C@H](C)C(=O)[C@H](C)[C@@H](O[C@@H]2O[C@H](C)C[C@H]([N+](C)(C)[O-])[C@H]2O)[C@](C)(OCC2CO2)C[C@@H](C)NC(=O)[C@H](C)[C@@H](O)[C@]1(C)O` (some centres not stated), the MIC against Staphylococcus aureus [1], against Staphylococcus aureus [2], against Staphylococcus aureus [3], against Streptococcus pneumoniae [4], in the test with Streptococcus pneumoniae [5] and with Streptococcus pyogenes [6] was above 64 µg/mL throughout. The MIC against Streptococcus pyogenes [7], against Streptococcus pyogenes [8], in the test on Moraxella catarrhalis, against Haemophilus influenzae, with Staphylococcus aureus [9] and against Streptococcus pneumoniae [10] was above 64 µg/mL in each case. Also, the MIC in the test with Streptococcus pyogenes [11] was above 64 µg/mL.
With `CC[C@H]1OC(=O)[C@H](C)C(=O)[C@H](C)[C@@H](O[C@@H]2O[C@H](C)C[C@H](N(C)C)[C@H]2O)[C@](C)(OCC(O)CNCCCCc2ccccn2)C[C@@H](C)NC(=O)[C@H](C)[C@@H](O)[C@]1(C)O` (some centres not stated), the MIC was 4 µg/mL (≈ 5.03 µM) against Staphylococcus aureus [1]; above 64 µg/mL against Staphylococcus aureus [2]; 2 µg/mL (≈ 2.52 µM) in the test on Staphylococcus aureus [3]; 2 µg/mL (≈ 2.52 µM) against Streptococcus pneumoniae [4]; 4 µg/mL (≈ 5.03 µM) with Streptococcus pneumoniae [5]; 0.5 µg/mL (≈ 0.629 µM) in the test with Streptococcus pyogenes [6]. Also, the MIC against Streptococcus pyogenes [7] was 32 µg/mL (≈ 40.3 µM); with Streptococcus pyogenes [8], 1 µg/mL (≈ 1.26 µM); against Moraxella catarrhalis, at most 0.125 µg/mL; in the test on Haemophilus influenzae, 4 µg/mL (≈ 5.03 µM); against Staphylococcus aureus [9] it was 1 µg/mL (≈ 1.26 µM); in the test with Streptococcus pneumoniae [10], at most 0.125 µg/mL. In the test on Streptococcus pyogenes [11], this compound came in with an MIC of 0.25 µg/mL (≈ 0.314 µM).
Consider `CC[C@H]1OC(=O)[C@H](C)C(=O)[C@H](C)[C@@H](O[C@@H]2O[C@H](C)C[C@H](N(C)C)[C@H]2O)[C@](C)(OCC(O)CNCCCCc2cccnc2)C[C@@H](C)NC(=O)[C@H](C)[C@@H](O)[C@]1(C)O` (some centres not stated), for which the MIC was 1 µg/mL (≈ 1.26 µM) against Staphylococcus aureus [1]; above 64 µg/mL in the test on Staphylococcus aureus [2]; 1 µg/mL (≈ 1.26 µM) in the test on Staphylococcus aureus [3]; 0.5 µg/mL (≈ 0.629 µM) in the test with Streptococcus pneumoniae [4]; 1 µg/mL (≈ 1.26 µM) against Streptococcus pneumoniae [5]; at most 0.125 µg/mL in the test with Streptococcus pyogenes [6]. Further, the MIC is 4 µg/mL (≈ 5.03 µM) with Streptococcus pyogenes [7]; 0.5 µg/mL (≈ 0.629 µM) against Streptococcus pyogenes [8]; at most 0.125 µg/mL in the test on Moraxella catarrhalis; 2 µg/mL (≈ 2.52 µM) against Haemophilus influenzae; 0.5 µg/mL (≈ 0.629 µM) against Staphylococcus aureus [9]; at most 0.125 µg/mL against Streptococcus pneumoniae [10]. This compound came in with an MIC against Streptococcus pyogenes [11] of at most 0.125 µg/mL.
Regarding `CC[C@H]1OC(=O)[C@H](C)C(=O)[C@H](C)[C@@H](O[C@@H]2O[C@H](C)C[C@H](N(C)C)[C@H]2O)[C@](C)(OCC(O)CNCCCCc2ccccc2)C[C@@H](C)NC(=O)[C@H](C)[C@@H](O)[C@]1(C)O` (mixture of isomers), the MIC in the test on Staphylococcus aureus [1] was 2 µg/mL; against Staphylococcus aureus [2], above 64 µg/mL; against Staphylococcus aureus [3], 2 µg/mL; against Streptococcus pneumoniae [4], 1 µg/mL; with Streptococcus pneumoniae [5], 4 µg/mL; with Streptococcus pyogenes [6] it was 0.5 µg/mL. The MIC against Streptococcus pyogenes [7] is 8 µg/mL; with Streptococcus pyogenes [8], 0.5 µg/mL; in the test with Moraxella catarrhalis it was at most 0.125 µg/mL; in the test with Haemophilus influenzae, 8 µg/mL; against Staphylococcus aureus [9] it was 2 µg/mL; against Streptococcus pneumoniae [10], at most 0.125 µg/mL. The MIC in the test with Streptococcus pyogenes [11] came to 0.25 µg/mL.

The values are drawn from ChEMBL document CHEMBL1212927, “Synthesis and structure-activity relationships of novel 8a-aza-8a-homoerythromycin A ketolides” (2010).
